Measurements taken from PubChem BioAssay (NCI).
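Step 1: Grow cells in 96-well plates. Step 2: Expose to compound for 48 hours at 5 concentrations. Step 3: Interpolate endpoints linearly; if unreached, use highest concentration. TGI marks complete inhibition of growth.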

Assays:
Assay in all cases: growth of human tumour cells (NCI), 48 h
M14 melanoma = system: M14 melanoma
SK-MEL-2 melanoma = system: SK-MEL-2 melanoma
SF-268 CNS = system: SF-268 CNS
SK-MEL-5 melanoma = system: SK-MEL-5 melanoma
IGROV1 ovarian = system: IGROV1 ovarian
BT-549 breast = system: BT-549 breast
HL-60(TB) leukemia = system: HL-60(TB) leukemia
NCI/ADR-RES ovarian = system: NCI/ADR-RES ovarian
SK-MEL-28 melanoma = system: SK-MEL-28 melanoma
CAKI-1 renal = system: CAKI-1 renal
SNB-75 CNS = system: SNB-75 CNS
SR leukemia = system: SR leukemia
ACHN renal = system: ACHN renal
HOP-62 NSCLC = system: HOP-62 NSCLC
TK-10 renal = system: TK-10 renal
NCI-H522 lung = system: NCI-H522 lung
786-0 renal = system: 786-0 renal
MCF7 breast = system: MCF7 breast
OVCAR-3 ovarian = system: OVCAR-3 ovarian
MDA-MB-231 breast = system: MDA-MB-231 breast
A549 NSCLC = system: A549 NSCLC
NCI-H226 lung = system: NCI-H226 lung
SF-539 CNS = system: SF-539 CNS
SF-295 CNS = system: SF-295 CNS
A498 renal = system: A498 renal
SW-620 colon = system: SW-620 colon
OVCAR-4 ovarian = system: OVCAR-4 ovarian
K-562 leukemia = system: K-562 leukemia
HCT-116 colon = system: HCT-116 colon
U251 CNS = system: U251 CNS
HCT-15 colon = system: HCT-15 colon
PC-3 prostate = system: PC-3 prostate
MALME-3M melanoma = system: MALME-3M melanoma
LOX IMVI melanoma = system: LOX IMVI melanoma
HT29 colon = system: HT29 colon
NCI-H23 lung = system: NCI-H23 lung
COLO 205 colon = system: COLO 205 colon
OVCAR-5 ovarian = system: OVCAR-5 ovarian
MDA-MB-435 = system: MDA-MB-435
HCC-2998 colon = system: HCC-2998 colon
MOLT-4 leukemia = system: MOLT-4 leukemia
SK-OV-3 ovarian = system: SK-OV-3 ovarian
OVCAR-8 ovarian = system: OVCAR-8 ovarian
CCRF-CEM leukemia = system: CCRF-CEM leukemia
MDA-N = system: MDA-N
RPMI-8226 leukemia = system: RPMI-8226 leukemia
SNB-19 CNS = system: SNB-19 CNS
UACC-257 melanoma = system: UACC-257 melanoma
UO-31 renal = system: UO-31 renal
UACC-62 melanoma = system: UACC-62 melanoma
T-47D breast = system: T-47D breast
SN12C renal = system: SN12C renal
NCI-H460 lung = system: NCI-H460 lung
KM12 colon = system: KM12 colon
DU-145 prostate = system: DU-145 prostate
RXF 393 renal = system: RXF 393 renal
HS 578T breast = system: HS 578T breast

Compound `S=c1[nH]nc(C23CC4CC(CC(C4)C2)C3)n1-c1ccc(Cl)cc1` has a TGI (M14 melanoma) of 41.4 µM, a TGI (SK-MEL-2 melanoma) of 27.9 µM and a TGI (SF-268 CNS) of 50.1 µM. The TGI (SK-MEL-5 melanoma) was 14.4 µM, the TGI (IGROV1 ovarian) was 42.9 µM and the TGI (BT-549 breast) was 29.9 µM. It also gave a TGI (HL-60(TB) leukemia) of 8.41 µM, a TGI (NCI/ADR-RES ovarian) of 59.8 µM and a TGI (SK-MEL-28 melanoma) of 33.4 µM. The TGI (CAKI-1 renal) was 11.5 µM, the TGI (SNB-75 CNS) was 72.1 µM and the TGI (SR leukemia) was 16.4 µM. It also gave a TGI (ACHN renal) of 73.5 µM, a TGI (HOP-62 NSCLC) of 32.7 µM and a TGI (TK-10 renal) of 72.4 µM. It also gave a TGI (NCI-H522 lung) of 57.9 µM, a TGI (786-0 renal) of over 100 µM and a TGI (MCF7 breast) of 45.7 µM. It also gave a TGI (OVCAR-3 ovarian) of 30.4 µM, a TGI (MDA-MB-231 breast) of 56.4 µM and a TGI (A549 NSCLC) of 72.2 µM. It also gave a TGI (NCI-H226 lung) of 55.8 µM, a TGI (SF-539 CNS) of 38 µM and a TGI (SF-295 CNS) of 58.6 µM. The TGI (A498 renal) was 42.6 µM, the TGI (SW-620 colon) was over 100 µM and the TGI (OVCAR-4 ovarian) was over 100 µM. It also gave a TGI (K-562 leukemia) of over 100 µM, a TGI (HCT-116 colon) of 23.8 µM and a TGI (U251 CNS) of 31.7 µM. It also gave a TGI (HCT-15 colon) of 23.3 µM, a TGI (PC-3 prostate) of 93.7 µM and a TGI (MALME-3M melanoma) of 63.3 µM. The TGI (LOX IMVI melanoma) was 17 µM, the TGI (HT29 colon) was 36.8 µM and the TGI (NCI-H23 lung) was over 100 µM. The TGI (COLO 205 colon) was 46 µM, the TGI (OVCAR-5 ovarian) was over 100 µM and the TGI (MDA-MB-435) was 55.9 µM. It also gave a TGI (HCC-2998 colon) of 32.9 µM, a TGI (MOLT-4 leukemia) of 49.4 µM and a TGI (SK-OV-3 ovarian) of 73.9 µM. It also gave a TGI (OVCAR-8 ovarian) of over 100 µM, a TGI (CCRF-CEM leukemia) of 19.8 µM and a TGI (MDA-N) of 41.1 µM. It also gave a TGI (RPMI-8226 leukemia) of 66.9 µM, a TGI (SNB-19 CNS) of over 100 µM and a TGI (UACC-257 melanoma) of 71.4 µM. It also gave a TGI (UO-31 renal) of 44.7 µM, a TGI (UACC-62 melanoma) of 25.3 µM and a TGI (T-47D breast) of 52 µM. It also gave a TGI (SN12C renal) of 39.9 µM, a TGI (NCI-H460 lung) of 56 µM and a TGI (KM12 colon) of 52.9 µM. It also gave a TGI (DU-145 prostate) of 95.9 µM, a TGI (RXF 393 renal) of 38.1 µM and a TGI (HS 578T breast) of 52.8 µM.
`c1ccc([P+](c2ccccc2)(c2ccccc2)c2ccc([P+](c3ccccc3)(c3ccccc3)c3ccccc3)c3ccccc23)cc1` was tested, and the TGI (M14 melanoma) was over 100 µM, the TGI (SK-MEL-2 melanoma) was over 100 µM and the TGI (SF-268 CNS) was over 100 µM. It also gave a TGI (SK-MEL-5 melanoma) of over 100 µM, a TGI (IGROV1 ovarian) of over 100 µM and a TGI (BT-549 breast) of over 100 µM. For the same compound, the TGI (HL-60(TB) leukemia) was over 100 µM, the TGI (NCI/ADR-RES ovarian) was over 100 µM and the TGI (SK-MEL-28 melanoma) was over 100 µM. It also gave a TGI (CAKI-1 renal) of over 100 µM, a TGI (SNB-75 CNS) of over 100 µM and a TGI (SR leukemia) of over 100 µM. It also gave a TGI (ACHN renal) of over 100 µM, a TGI (HOP-62 NSCLC) of over 100 µM and a TGI (TK-10 renal) of over 100 µM. The TGI (NCI-H522 lung) was over 100 µM, the TGI (786-0 renal) was over 100 µM and the TGI (MCF7 breast) was over 100 µM. It also gave a TGI (OVCAR-3 ovarian) of over 100 µM, a TGI (MDA-MB-231 breast) of over 100 µM and a TGI (A549 NSCLC) of over 100 µM. The TGI (NCI-H226 lung) was over 100 µM, the TGI (SF-539 CNS) was over 100 µM and the TGI (SF-295 CNS) was over 100 µM. For the same compound, the TGI (A498 renal) was over 100 µM, the TGI (SW-620 colon) was over 100 µM and the TGI (K-562 leukemia) was over 100 µM. It also gave a TGI (HCT-116 colon) of over 100 µM, a TGI (U251 CNS) of over 100 µM and a TGI (HCT-15 colon) of over 100 µM. The TGI (PC-3 prostate) was over 100 µM, the TGI (MALME-3M melanoma) was over 100 µM and the TGI (LOX IMVI melanoma) was over 100 µM. For the same compound, the TGI (HT29 colon) was over 100 µM, the TGI (NCI-H23 lung) was over 100 µM and the TGI (COLO 205 colon) was over 100 µM. For the same compound, the TGI (OVCAR-5 ovarian) was over 100 µM, the TGI (MDA-MB-435) was over 100 µM and the TGI (HCC-2998 colon) was over 100 µM. The TGI (MOLT-4 leukemia) was over 100 µM, the TGI (SK-OV-3 ovarian) was over 100 µM and the TGI (OVCAR-8 ovarian) was over 100 µM. The TGI (CCRF-CEM leukemia) was over 100 µM, the TGI (MDA-N) was over 100 µM and the TGI (RPMI-8226 leukemia) was over 100 µM. It also gave a TGI (SNB-19 CNS) of over 100 µM, a TGI (UACC-257 melanoma) of over 100 µM and a TGI (UO-31 renal) of over 100 µM. It also gave a TGI (UACC-62 melanoma) of over 100 µM, a TGI (T-47D breast) of over 100 µM and a TGI (SN12C renal) of over 100 µM. The TGI (NCI-H460 lung) was over 100 µM, the TGI (KM12 colon) was over 100 µM and the TGI (DU-145 prostate) was over 100 µM. The TGI (RXF 393 renal) was over 100 µM and the TGI (HS 578T breast) was over 100 µM.
